Measured values taken from paper PMC7915682, “Pursuing Orally Bioavailable Hepcidin Analogues via Cyclic N-Methylated Mini-Hepcidins” (Biomedicines, 2021).
pEC50: −log10 of the molar value. Where two headings read alike, the source gives them in different places. Where a SMILES comes first, the peptide text is derived from it. Where no end group is shown, it is not given here.

Assays:
[1] = biological target: T1, GFP-tagged ferroportin (FPN) (Homo sapiens, UniProt Q9NP59); experiment: FPN-GFP degradation (internalisation) assay by flow cytometry in HEK293:T-REx-FPN-GFP cells; assay type: cell-based; conditions: 24 h treatment; for FPN Degradation % ± SEM: peptide 10 μM, normalised with respect to hepcidin (1 μM), n = 3; for pEC50: FPN degradation dose-response, HEK293:T-REx-FPN-GFP cells
T1 construct: expressed in transfected cells
T1 sequence (Q9NP59 1-571): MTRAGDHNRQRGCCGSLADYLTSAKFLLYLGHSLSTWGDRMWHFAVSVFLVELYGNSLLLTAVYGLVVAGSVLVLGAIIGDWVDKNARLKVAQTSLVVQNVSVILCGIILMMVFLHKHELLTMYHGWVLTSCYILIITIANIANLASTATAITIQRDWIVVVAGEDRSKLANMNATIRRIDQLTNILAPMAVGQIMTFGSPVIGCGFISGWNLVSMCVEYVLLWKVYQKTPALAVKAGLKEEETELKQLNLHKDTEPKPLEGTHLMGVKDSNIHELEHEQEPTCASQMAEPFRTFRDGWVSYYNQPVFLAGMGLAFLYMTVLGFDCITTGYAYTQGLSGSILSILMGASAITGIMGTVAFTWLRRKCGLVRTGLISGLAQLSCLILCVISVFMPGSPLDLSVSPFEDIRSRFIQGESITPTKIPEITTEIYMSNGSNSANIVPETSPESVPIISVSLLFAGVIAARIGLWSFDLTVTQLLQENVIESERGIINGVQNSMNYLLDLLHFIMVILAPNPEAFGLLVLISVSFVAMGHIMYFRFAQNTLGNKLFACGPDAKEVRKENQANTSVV
Description: HEK293:T-REx^TM-FPN-GFP cells, described previously, were cultured in T75 flasks containing FPN-GFP media (Dulbecco’s Modified Eagle’s Medium (DMEM) containing high glucose, GlutaMAX^TM supplement, hydroxyethyl piperazineethanesulfonic acid (HEPES), 10% tetracycline screened foetal bovine serum (FBS), 1% penicillin/streptomycin, and 100 μg/mL of hygromycin) and maintained at 37 °C in a humidified atmosphere of 5% CO2.
HEK293:T-REx^TM-FPN-GFP cells were plated in FPN-GFP media in the presence of 20 µM FAC (ferric ammonium citrate = ammonium iron (III) citrate) and induced on the following day with 50 ng/mL of doxycycline hydrochloride. After 24 h, doxycycline hydrochloride was washed off with PBS (phosphate buffered saline) and the cells were treated with peptides for another 24 h. Cells were then trypsinised, centrifuged (5 min at 1000 rpm), and resuspended in PBS at approximately 1 × 10^4 cell/µL. The intensity of green fluorescence was measured by flow cytometry performed on a Becton Dickinson LSR Fortessa-X-20. Cells not induced with doxycycline hydrochloride were used to establish a gate to exclude background fluorescence, and cells induced to express FPN-GFP but not treated with any peptides were used as the positive control. Each peptide treatment was repeated independently at least three times except for the initial screening of the mono N-methylated analogues (Figure 2), which was only performed once. The results were expressed as the % of the reduction in fluorescence with respect to hepcidin-treated cells according to the following formula: % FPN Degradation = (1 − (average FHepc − Fχ)/(average FHepc − average Funtreated)) × 100, where F corresponds to the GFP gate median, and χ to the peptide analysed.
Peptide bioactivity was measured using HEK293:T-REx^TM-FPN-GFP cells stably expressing a GFP-tagged ferroportin (FPN) construct that was treated overnight with different concentrations of hepcidin or analogues. FPN-GFP expression and FPN-GFP internalisation and degradation in response to hepcidin treatment were confirmed by confocal microscopy, and the % of GFP fluorescence was then analysed by flow cytometry and expressed as a % FPN degradation. […] This promising result led us to design a second series of analogues that included multiple N-methylated residues with and without backbone cyclisation.

[2] = Serum stability assay (25% human male serum, 37 °C, LC-MS); assay type: in vitro ADME
Description: Human male serum was centrifuged at 20,000 g for 10 min and the clear part of the supernatant was then diluted to 25% (v/v) with Milli-Q® water and incubated at 37 °C for 15 min. Each peptide sample was dissolved in triplicate at a final concentration of 20 μM in pre-incubated 25% serum, or Milli-Q® water as a control. […] Supernatant was then removed and transferred into vials for liquid chromatography mass spectrometry (LC-MS) analysis (50 μL injection and multiple reaction monitoring (MRM) protocol, Table S2). The effect of these strategies on the stability of mini-hepcidin analogues was investigated by incubating selected derivatives in human male serum at 37 °C and collecting samples at various time points. The results were then quantitated by liquid chromatography-mass spectrometry (LC-MS). We were unable to determine the serum stability of all analogues as the recovery from serum and detection of the peptides was very low. Modification of sample preparation protocols, optimisation of LC/MS conditions, and reducing serum concentration to 25% were unable to improve yield/detection. We would predict that this poor recovery is due to high binding of peptides to serum proteins, which is consistent with native hepcidin, which binds to α-2-macroglobulin [35, 36]. […] Effect of macrocyclisation and N-methylation on the stability of selected mini- hepcidin derivatives. A) Illustration of sites most susceptible to enzymatic attack in mini- hepcidin derivatives. B) Serum stability analysis of selected […]. Human male serum was centrifuged at 20,000 g for 10 minutes and the clear part of the supernatant was then diluted to 25% (v/v) with Milli-Q® water and incubated at 37 °C for 15 minutes. Each peptide sample was dissolved in triplicate at a final concentration of 20 μM in pre-incubated 25% serum, or Milli-Q® water as a control. Aliquots of 100 μL were removed at different time points and quenched with 100 μL of 15% trichloroacetic acid (TCA), followed by […] Supernatant was then removed and transferred into vials for liquid chromatography mass spectrometry (LC- MS) analysis (50 μL injection and multiple reaction monitoring (MRM) protocol). Error bars […] Comparison between Hep9, 2, […]9, 9. (also on this page, place not known: […] Hep9 2 […]] 7 Proteolytic attack Reduced proteolytic attack Blocked proteolytic attack 0 50 100 150 200 0 50 100 Time /min % Peptide Remaining 2 9 A B 7) (1 picture or pasted object on this page, not shown here)

Caco-2 = Caco-2 in vitro model (preliminary); assay type: in vitro ADME; conditions: preliminary results, data not shown
Text: It has been proposed that by enhancing the lipophilicity of peptides, the intestinal permeability could be improved by facilitating transcellular absorption (passive diffusion). Thus, our rationale was to improve the permeability of Hep9 2, by increasing its lipophilicity via both cyclisation and multiple N-methylations. […] Cyclisation and N-methylation appear to facilitate the crossing of the artificial lipid membrane for cHep9[Ser^1, MeThr^2, MeIle^8] 13, but this enhancement was not statistically significant relative to atenolol, a marker for poor transcellular permeability, or Hep9 2, (Figure 5). […] Preliminary results from a Caco-2 in vitro model were consistent with the PAMPA data (data not shown).

With DTHFP[N-Me I]C[N-Me I]F [Peptide 4] the “FPN Degradation % ± SEM” value [1] was “Not active”.
For `CC[C@H](C)[C@H](NC(=O)[C@H](CS)NC(=O)[C@H]([C@@H](C)CC)N(C)C(=O)[C@@H]1CCCN1C(=O)[C@H](Cc1ccccc1)NC(=O)[C@H](Cc1c[nH]cn1)NC(=O)[C@H]([C@@H](C)O)N(C)C(=O)[C@@H](N)CO)C(=O)N[C@@H](Cc1ccccc1)C(=O)O` [Peptide 5, S[N-Me T]HFP[N-Me I]CIF] (HELM PEPTIDE1{S.[meT].H.F.P.[meI].C.I.F}$$$$V2.0; N-terminus assumed), the pEC50 [1] was 4.39.
In the case of c(DTH[N-Me F]PICI[N-Me F]) [Peptide 11], the “FPN Degradation % ± SEM” value [1] was 63 ± 1.6%.
Work on `CC[C@H](C)[C@@H]1NC(=O)[C@H](CS)NC(=O)[C@H]([C@@H](C)CC)NC(=O)[C@@H]2CCCN2C(=O)[C@H](Cc2ccccc2)NC(=O)[C@H](Cc2c[nH]cn2)NC(=O)[C@H]([C@@H](C)O)NC(=O)[C@H](CC(=O)O)NC(=O)[C@H](Cc2ccccc2)NC1=O` [Peptide 8] yielded a half-life at 20 μM ([2]; serum (25% v/v), 20 μM peptide in 25% human male serum, 37 °C, read-out: peptide half-life in serum) of ~8 min.
In the case of `CC[C@H](C)[C@@H]1NC(=O)[C@@H]2CCCN2C(=O)[C@H](Cc2ccccc2)NC(=O)[C@H](Cc2c[nH]cn2)NC(=O)[C@H]([C@@H](C)O)N(C)C(=O)[C@H](CO)NC(=O)[C@H](Cc2ccccc2)NC(=O)[C@H]([C@@H](C)CC)N(C)C(=O)[C@H](CS)NC1=O` [Peptide 13, c(S[N-Me T]HFPIC[N-Me I]F)] (HELM PEPTIDE1{S.[meT].H.F.P.I.C.[meI].F}$PEPTIDE1,PEPTIDE1,1:R1-9:R2$$$V2.0), the “Caco-2 permeability” value (Caco-2) was “paralleled these observations” and the pEC50 [1] was 6.85.
`CC[C@H](C)[C@H](NC(=O)[C@H](CS)NC(=O)[C@@H](NC(=O)[C@@H]1CCCN1C(=O)[C@H](Cc1ccccc1)NC(=O)[C@H](Cc1c[nH]cn1)NC(=O)[C@@H](NC(=O)[C@@H](N)CC(=O)O)[C@@H](C)O)[C@@H](C)CC)C(=O)N[C@@H](Cc1ccccc1)C(=O)O` [Peptide 2, reference compound] showed a pEC50 [1] of 5.68 and a half-life at 20 μM ([2]; male, human, serum) of ~3 min.
In the case of `CC[C@H](C)[C@@H]1NC(=O)[C@H](CS)NC(=O)[C@H]([C@@H](C)CC)NC(=O)[C@@H]2CCCN2C(=O)[C@H](Cc2ccccc2)NC(=O)[C@H](Cc2c[nH]cn2)NC(=O)[C@H]([C@@H](C)O)NC(=O)[C@H](CO)NC(=O)[C@H](Cc2ccccc2)NC1=O` [Peptide 9] (HELM PEPTIDE1{C.I.F.S.T.H.F.P.I}$PEPTIDE1,PEPTIDE1,1:R1-9:R2$$$V2.0), the pEC50 [1] was 6.58.
In the case of `CC[C@H](C)[C@@H]1NC(=O)[C@@H](NC(=O)[C@@H](NC(=O)[C@@H]2CCCN2C(=O)[C@H](Cc2ccccc2)NC(=O)[C@H](Cc2c[nH]cn2)NC(=O)[C@@H](NC(=O)[C@@H](N)CC(=O)O)[C@@H](C)O)[C@@H](C)CC)CSSC[C@@H](C(=O)N[C@@H](CCCCN)C(=O)N[C@H](C(=O)O)[C@@H](C)O)NC(=O)[C@@H]2CSSC[C@@H]3NC(=O)[C@@H]4CSSC[C@H](NC(=O)[C@H](Cc5ccccc5)NC1=O)C(=O)N[C@@H](CSSC[C@H](NC(=O)[C@H](CCCCN)NC(=O)[C@H](CO)NC(=O)[C@H](CCCNC(=N)N)NC(=O)[C@H](Cc1c[nH]cn1)NC3=O)C(=O)NCC(=O)N[C@@H](CCSC)C(=O)N2)C(=O)NCC(=O)N4` [Peptide 1, reference compound], the pEC50 [1] was 8.03 and the “FPN Degradation % ± SEM” value [1] was 100 ± 2.6%.
`CC[C@H](C)[C@H]1C(=O)N[C@@H](Cc2ccccc2)C(=O)N[C@@H](CC(=O)O)C(=O)N[C@@H]([C@@H](C)O)C(=O)N[C@@H](Cc2c[nH]cn2)C(=O)N[C@@H](Cc2ccccc2)C(=O)N2CCC[C@H]2C(=O)N(C)[C@@H]([C@@H](C)CC)C(=O)N[C@@H](CS)C(=O)N1C` [Peptide 12, c(DTHFP[N-Me I]C[N-Me I]F)] showed a pEC50 [1] of 5.54.
Work on STHFPICIF-OH [Peptide 3] yielded a pEC50 [1] of 6.49.
For `CC[C@H](C)[C@@H](C(=O)N[C@@H](Cc1ccccc1)C(=O)O)N(C)C(=O)[C@H](CS)NC(=O)[C@H]([C@@H](C)CC)N(C)C(=O)[C@@H]1CCCN1C(=O)[C@H](Cc1ccccc1)NC(=O)[C@H](Cc1c[nH]cn1)NC(=O)[C@H]([C@@H](C)O)N(C)C(=O)[C@@H](N)CO` [Peptide 7, S[N-Me T]HFP[N-Me I]C[N-Me I]F] (HELM PEPTIDE1{S.[meT].H.F.P.[meI].C.[meI].F}$$$$V2.0; N-terminus assumed), the pEC50 [1] was 5.72.
In the case of `CC[C@H](C)[C@H](NC(=O)[C@@H]1CCCN1C(=O)[C@H](Cc1ccccc1)NC(=O)[C@H](Cc1c[nH]cn1)NC(=O)[C@H]([C@@H](C)O)N(C)C(=O)[C@@H](N)CO)C(=O)N[C@@H](CS)C(=O)N(C)[C@H](C(=O)N[C@@H](Cc1ccccc1)C(=O)O)[C@@H](C)CC` [Peptide 6, S[N-Me T]HFPIC[N-Me I]F] (HELM PEPTIDE1{S.[meT].H.F.P.I.C.[meI].F}$$$$V2.0; N-terminus assumed), the pEC50 [1] was 5.66, the half-life at 20 μM ([2]; 25% (v/v) human male serum, 20 μM peptide in 25% human male serum, 37 °C, read-out: peptide half-life in serum) was ~12 min and the “stability relative to Hep9” value ([2]; 25% human male serum, 37 °C, ratio of half-lives) was “approximately four”.
In the case of `CC[C@H](C)[C@@H]1NC(=O)[C@H](CS)NC(=O)[C@H]([C@@H](C)CC)NC(=O)[C@@H]2CCCN2C(=O)[C@H](Cc2ccccc2)NC(=O)[C@H](Cc2c[nH]cn2)NC(=O)[C@H]([C@@H](C)O)NC(=O)[C@H](CC(=O)O)NC(=O)CNC(=O)CNC(=O)CNC(=O)CNC(=O)[C@H](Cc2ccccc2)NC1=O` [Peptide 10] (HELM PEPTIDE1{C.I.F.G.G.G.G.D.T.H.F.P.I}$PEPTIDE1,PEPTIDE1,1:R1-13:R2$$$V2.0), the pEC50 [1] was 6.80.
